# In US4057636A, “Antihypertensive pyridylguanidine compounds” (Leo Pharmaceutical Products Ltd. A/S, priority 1974, dated 1977):
# Columns and labels:
# in vivo = settings: mouse, po, p.o. (mice), approximate
# [1] = test system: conscious normotensive dogs; test: Hypotensive activity in conscious normotensive dogs; format: in vivo, dog (mongrel); settings: 0.1 mg/kg oral
# Description: Hypotensive activity in conscious normotensive dogs
# Mongrel dogs of both sexes, fasting 16 hours before the experiment were used. […] The compounds were orally administered in gelatine capsules.
# [2] = test system: conscious spontaneously hypertensive rats; test: Antihypertensive activity in conscious spontaneously hypertensive rats; format: in vivo, rat (spontaneously hypertensive Okamoto strain); settings: 0.05 mg/kg
# Description: Male albino rats, spontaneously hypertensive Okamoto strain, fasting 16 hours before the experiments were used. The conscious animals were restrained in a plastic cage and a cuff was secured around the tail. The cuff was connected with an electronic blood pressure recorder. The systolic blood pressure and the heart rate were measured before and 2, 4, 6, and 24 hours after the administration of compounds. The compounds were suspended or dissolved in carboxymethylcellulose 0.5%. […] There are also included, for comparison, the results obtained under the same experimental conditions with some known antihypertensive drugs, and the approximate oral LD50 in mice are stated.
smiles,measurement,setting,value
"CCC(C)(C)NC(=NC#N)Nc1cccnc1 [P 1075, N""-cyano-N-tert-pentyl-N'-3-pyridylguanidine]",LD50,in vivo,1000 mg/kg
same,BP,"[1]; Dog I, 1 hour",72 mm Hg
same,HR,"[1]; Dog I, 1 hour",160 beats/minute
same,BP,"[1]; Dog I, 2 hours",75 mm Hg
same,HR,"[1]; Dog I, 2 hours",180 beats/minute
same,BP,"[1]; Dog I, 3 hours",85 mm Hg
same,HR,"[1]; Dog I, 3 hours",142 beats/minute
same,BP,"[1]; Dog I, 4 hours",95 mm Hg
same,HR,"[1]; Dog I, 4 hours",135 beats/minute
same,BP,"[1]; Dog II, 1 hour",82 mm Hg
same,HR,"[1]; Dog II, 1 hour",175 beats/minute
same,BP,"[1]; Dog II, 2 hours",74 mm Hg
same,HR,"[1]; Dog II, 2 hours",185 beats/minute
same,BP,"[1]; Dog II, 3 hours",92 mm Hg
same,HR,"[1]; Dog II, 3 hours",163 beats/minute
same,BP,"[1]; Dog II, 4 hours",115 mm Hg
same,HR,"[1]; Dog II, 4 hours",140 beats/minute
same,BP,"[1]; Dog III, 1 hour",95 mm Hg
same,HR,"[1]; Dog III, 1 hour",185 beats/minute
same,BP,"[1]; Dog III, 2 hours",90 mm Hg
same,HR,"[1]; Dog III, 2 hours",175 beats/minute
same,BP,"[1]; Dog III, 3 hours",104 mm Hg
same,HR,"[1]; Dog III, 3 hours",149 beats/minute
same,BP,"[1]; Dog III, 4 hours",110 mm Hg
same,HR,"[1]; Dog III, 4 hours",140 beats/minute
same,BP,[2]; 2 hours,105 mm Hg
same,HR,[2]; 2 hours,450 beats/minute
same,BP,[2]; 4 hours,102 mm Hg
same,HR,[2]; 4 hours,432 beats/minute
same,BP,[2]; 24 hours,164 mm Hg
same,HR,[2]; 24 hours,348 beats/minute
